Laboratory results: ChEMBL document CHEMBL1201862, “PubChem BioAssay data set” (2004)
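A five-concentration, 48-hour dose response in 96-well plates underlies each endpoint, interpolated linearly between surrounding concentrations. At the GI50, growth is halved.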 Calls of active or inactive are those of the source. Rule as the data show it: active = GI50 up to about 1.1 µM and inactive = higher.

What was measured:
Assay in all cases: DTP human tumour cell line panel, 48 h
EKVX = test system: EKVX
SF-268 = test system: SF-268
UACC-257 = test system: UACC-257
SF-539 = test system: SF-539
HOP-62 = test system: HOP-62
SK-MEL-2 = test system: SK-MEL-2
K562 = test system: K562
NCI-H460 = test system: NCI-H460
HCC 2998 = test system: HCC 2998
NCI-H226 = test system: NCI-H226
NCI-H522 = test system: NCI-H522
HL-60 = test system: HL-60
M14 = test system: M14
U-251 = test system: U-251
SN12C = test system: SN12C
ACHN = test system: ACHN
LOX IMVI = test system: LOX IMVI
COLO 205 = test system: COLO 205
DU-145 = test system: DU-145
SNB-19 = test system: SNB-19

Row | SMILES | GI50 (EKVX) | GI50 (SF-268) | GI50 (UACC-257) | GI50 (SF-539) | GI50 (HOP-62) | GI50 (SK-MEL-2) | GI50 (K562) | GI50 (NCI-H460) | GI50 (HCC 2998) | GI50 (NCI-H226) | GI50 (NCI-H522) | GI50 (HL-60) | GI50 (M14) | GI50 (U-251) | GI50 (SN12C) | GI50 (ACHN) | GI50 (LOX IMVI) | GI50 (COLO 205) | GI50 (DU-145) | GI50 (SNB-19)
1 | O=C(O)c1cc(C(=O)O)nc(C(=O)O)c1 | > 100 µM (inactive) | > 100 µM (inactive) | > 100 µM (inactive) | > 100 µM (inactive) | > 100 µM (inactive) | > 100 µM (inactive) | > 100 µM (inactive) | > 100 µM (inactive) | > 100 µM (inactive) | > 100 µM (inactive) | > 100 µM (inactive) | > 100 µM (inactive) | > 100 µM (inactive) | > 100 µM (inactive) | > 100 µM (inactive) | > 100 µM (inactive) | > 100 µM (inactive) | > 100 µM (inactive) | > 100 µM (inactive) | > 100 µM (inactive)
2 | COC(=O)c1ccccc1C1CN=NC12Cc1c(C)ccc(C)c1C2=O (stereo not given) | > 100 µM (inactive) | > 100 µM (inactive) | > 100 µM (inactive) | > 100 µM (inactive) | > 100 µM (inactive) | > 100 µM (inactive) | 68.5 µM (inactive) | > 100 µM (inactive) | > 100 µM (inactive) | > 100 µM (inactive) | > 100 µM (inactive) | 37.6 µM (inactive) | > 100 µM (inactive) | > 100 µM (inactive) | > 100 µM (inactive) | > 100 µM (inactive) | > 100 µM (inactive) | > 100 µM (inactive) | > 100 µM (inactive) | > 100 µM (inactive)
3 | Cn1c2ccccc2c(=O)c2c(O)cc3c(c21)C=CC1(CCCC1)O3 | 20.8 µM (inactive) | > 100 µM (inactive) | > 100 µM (inactive) | 50.5 µM (inactive) | 85.3 µM (inactive) | > 100 µM (inactive) | 3.51 µM (inactive) | > 100 µM (inactive) | > 100 µM (inactive) | > 100 µM (inactive) | > 100 µM (inactive) | > 100 µM (inactive) | > 100 µM (inactive) | > 100 µM (inactive) | > 100 µM (inactive) | > 100 µM (inactive) | > 100 µM (inactive) | > 100 µM (inactive) | > 100 µM (inactive) | > 100 µM (inactive)
4 | CC(C)=CCC/C(C)=C/CO [GERANIOL] | > 100 µM (inactive) | > 100 µM (inactive) | > 100 µM (inactive) | > 100 µM (inactive) | > 100 µM (inactive) | > 100 µM (inactive) | > 100 µM (inactive) | > 100 µM (inactive) | > 100 µM (inactive) | > 100 µM (inactive) | > 100 µM (inactive) | > 100 µM (inactive) | > 100 µM (inactive) | > 100 µM (inactive) | > 100 µM (inactive) | > 100 µM (inactive) | > 100 µM (inactive) | > 100 µM (inactive) | > 100 µM (inactive) | > 100 µM (inactive)
5 | COc1cc2c(c(OC)c1OC)C(=O)c1c(O)cc(C)c(OC)c1C2=O | 65 µM (inactive) | > 100 µM (inactive) | 54.6 µM (inactive) | 75.5 µM (inactive) | 50.7 µM (inactive) | 88.1 µM (inactive) | > 10 µM (inactive) | 63.1 µM (inactive) | > 100 µM (inactive) | > 100 µM (inactive) | 57.1 µM (inactive) | > 100 µM (inactive) | > 100 µM (inactive) | 94 µM (inactive) | > 100 µM (inactive) | 46 µM (inactive) | 86.3 µM (inactive) | > 100 µM (inactive) | > 100 µM (inactive) | 77.1 µM (inactive)
6 | C=CCn1c(=O)c2ccccc2[n+]2c(-c3cccc([N+](=O)[O-])c3)csc12 | 33.7 µM (inactive) | 48.9 µM (inactive) | 36.3 µM (inactive) | 96.8 µM (inactive) | 76.7 µM (inactive) | 30.6 µM (inactive) | 28.4 µM (inactive) | 42.1 µM (inactive) | > 100 µM (inactive) | 12.5 µM (inactive) | 36.1 µM (inactive) | 25.9 µM (inactive) | 62.7 µM (inactive) | 77.4 µM (inactive) | > 100 µM (inactive) | > 100 µM (inactive) | 56.8 µM (inactive) | 24.8 µM (inactive) | 50.4 µM (inactive) | > 100 µM (inactive)
7 | CC(=O)Nc1ccc(N2C(=O)/C(=C\c3cccc(Oc4ccccc4)c3)SC2c2ccccc2)cc1 (stereo not given) | 42.7 µM (inactive) | 50.6 µM (inactive) | 35 µM (inactive) | 19.3 µM (inactive) | 22.6 µM (inactive) | 30.4 µM (inactive) | 33.1 µM (inactive) | 50.7 µM (inactive) | > 100 µM (inactive) | 22 µM (inactive) | 23.2 µM (inactive) | 25.4 µM (inactive) | 32.3 µM (inactive) | 14.7 µM (inactive) | 26.8 µM (inactive) | 71 µM (inactive) | 17.2 µM (inactive) | 70.3 µM (inactive) | 27.5 µM (inactive) | 19.8 µM (inactive)
8 | COC1CC(OC(=O)c2ccccc2)C(OC(=O)c2ccccc2)C(C)O1 (stereo not given) | > 100 µM (inactive) | > 100 µM (inactive) | > 100 µM (inactive) | > 100 µM (inactive) | > 100 µM (inactive) | > 100 µM (inactive) | > 100 µM (inactive) | > 100 µM (inactive) | > 100 µM (inactive) | 85.1 µM (inactive) | > 100 µM (inactive) | > 100 µM (inactive) | > 100 µM (inactive) | > 100 µM (inactive) | > 100 µM (inactive) | > 100 µM (inactive) | > 100 µM (inactive) | > 100 µM (inactive) | > 100 µM (inactive) | > 100 µM (inactive)
9 | COC(=O)[C@@H]1CN(C(=O)CCc2ccccc2)C(=O)N1 | > 100 µM (inactive) | > 100 µM (inactive) | > 100 µM (inactive) | > 100 µM (inactive) | > 100 µM (inactive) | > 100 µM (inactive) | > 100 µM (inactive) | 86.1 µM (inactive) | > 100 µM (inactive) | > 100 µM (inactive) | > 100 µM (inactive) | > 100 µM (inactive) | > 100 µM (inactive) | > 100 µM (inactive) | > 100 µM (inactive) | > 100 µM (inactive) | > 100 µM (inactive) | > 100 µM (inactive) | > 100 µM (inactive) | > 100 µM (inactive)
10 | CN(C)CCCc1c[nH]c2ccccc12 | > 100 µM (inactive) | > 100 µM (inactive) | > 100 µM (inactive) | > 100 µM (inactive) | > 100 µM (inactive) | > 100 µM (inactive) | > 100 µM (inactive) | > 100 µM (inactive) | > 100 µM (inactive) | > 100 µM (inactive) | > 100 µM (inactive) | > 100 µM (inactive) | > 100 µM (inactive) | > 100 µM (inactive) | > 100 µM (inactive) | > 100 µM (inactive) | > 100 µM (inactive) | > 100 µM (inactive) | > 100 µM (inactive) | > 100 µM (inactive)
11 | Cc1n(Cc2ccccc2)c2c([n+]1C)C(=O)c1ccccc1C2=O | 0.181 µM (active) | 0.0274 µM (active) | 0.034 µM (active) | 0.026 µM (active) | 0.0407 µM (active) | 0.132 µM (active) | 0.0366 µM (active) | 0.108 µM (active) | 0.236 µM (active) | 0.237 µM (active) | 0.027 µM (active) | 0.0318 µM (active) | 0.0902 µM (active) | 0.0324 µM (active) | 0.0318 µM (active) | 0.873 µM (active) | 0.0473 µM (active) | < 0.01 µM (active) | 0.156 µM (active) | 0.0581 µM (active)
12 | COc1c(O)c2ccccc2c2cc(O)ccc12 | 18.1 µM (inactive) | 10.8 µM (inactive) | 2.1 µM (inactive) | 3.69 µM (inactive) | 10.6 µM (inactive) | 4.79 µM (inactive) | 2.72 µM (inactive) | 7.69 µM (inactive) | 17.3 µM (inactive) | 13.6 µM (inactive) | 5.4 µM (inactive) | 2.86 µM (inactive) | 3.64 µM (inactive) | 5.22 µM (inactive) | 5.2 µM (inactive) | 3.55 µM (inactive) | 2 µM (inactive) | 16 µM (inactive) | 8.22 µM (inactive) | 13.6 µM (inactive)
13 | CCCCC/N=C/c1c(O)c(O)c(C(C)C)c2cc(C)c(-c3c(C)cc4c(C(C)C)c(O)c(O)c(/C=N/CCCCC)c4c3O)c(O)c12 | 7.96 µM (inactive) | 6.5 µM (inactive) | 15.6 µM (inactive) | 6.08 µM (inactive) | 15.3 µM (inactive) | 14 µM (inactive) | 4.25 µM (inactive) | 5.65 µM (inactive) | 10.7 µM (inactive) | 23 µM (inactive) | 5.05 µM (inactive) | 3.94 µM (inactive) | 38.1 µM (inactive) | 3.06 µM (inactive) | 7.94 µM (inactive) | 3.59 µM (inactive) | 3.52 µM (inactive) | 2.75 µM (inactive) | 19.5 µM (inactive) | 3.78 µM (inactive)
14 | Cc1cc(S(=O)(=O)Nc2nnc3cc(C(F)(F)F)cc(C)n23)c(S)cc1Cl | > 100 µM (inactive) | > 100 µM (inactive) | > 100 µM (inactive) | 34.4 µM (inactive) | 35.2 µM (inactive) | 30.7 µM (inactive) | > 100 µM (inactive) | 19.5 µM (inactive) | 33.7 µM (inactive) | > 54.6 µM (inactive) | > 100 µM (inactive) | > 100 µM (inactive) | 77.3 µM (inactive) | 29 µM (inactive) | > 100 µM (inactive) | > 100 µM (inactive) | > 100 µM (inactive) | > 100 µM (inactive) | > 100 µM (inactive) | 27.5 µM (inactive)
